# Test results: the supplement of paper PMC11061612
# Key:
# Assay in all cases: Bliss excess, mean over the matrix (fraction); higher = more synergy
# AM-38 (Glioblastoma) = tested on: AM-38 (Glioblastoma)
# Outline: (§1)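 Bliss excess equals the observed combination effect minus the expected value EA + EB − EA·EB, where EA and EB are the effects of each agent alone. Combination Emax is the second-highest inhibition within the matrix. Inhibition was scaled from CellTiter-Glo 2.0 luminescence, with 0 set by vehicle wells and 1 by blank wells, after 72 hours of two-drug dosing of cells plated in 1536-well plates.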
# [1] = tested on: CL-11 (Colorectal Carcinoma)
# Outline: as §1
# [2] = tested on: CPC-N (Small Cell Lung Carcinoma)
# Outline: as §1
# ES6 (Ewing's Sarcoma) = tested on: ES6 (Ewing's Sarcoma)
# Outline: as §1
# IST-MEL1 (Melanoma) = tested on: IST-MEL1 (Melanoma)
# Outline: as §1
# [3] = tested on: LCLC-103H (Non-Small Cell Lung Carcinoma)
# Outline: as §1
# [4] = tested on: MOLT-13 (T-Lymphoblastic Leukemia)
# Outline: as §1
# [5] = tested on: MS-1 (Small Cell Lung Carcinoma)
# Outline: as §1
# NB1 (Neuroblastoma) = tested on: NB1 (Neuroblastoma)
# Outline: as §1
# NCI-H226 (Mesothelioma) = tested on: NCI-H226 (Mesothelioma)
# Outline: as §1
# NCI-H2373 (Mesothelioma) = tested on: NCI-H2373 (Mesothelioma)
# Outline: as §1
# [6] = tested on: NCI-H596 (Other Solid Carcinomas)
# Outline: as §1
# [7] = tested on: Raji (Burkitt's Lymphoma)
# Outline: as §1
# SK-N-SH (Neuroblastoma) = tested on: SK-N-SH (Neuroblastoma)
# Outline: as §1
# [8] = tested on: SKG-IIIa (Cervical Carcinoma)
# Outline: as §1
# [9] = tested on: SNU-C2B (Colorectal Carcinoma)
# Outline: as §1
# [10] = tested on: SUP-M2 (T-Cell Non-Hodgkin's Lymphoma)
# Outline: as §1
# T47D (Breast Carcinoma) = tested on: T47D (Breast Carcinoma)
# Outline: as §1
# [11] = tested on: TUR (Acute Myeloid Leukemia)
# Outline: as §1
# UACC-257 (Melanoma) = tested on: UACC-257 (Melanoma)
# Outline: as §1
Compound,Bliss excess (AM-38 (Glioblastoma)),Bliss excess [1],Bliss excess [2],Bliss excess (ES6 (Ewing's Sarcoma)),Bliss excess (IST-MEL1 (Melanoma)),Bliss excess [3],Bliss excess [4],Bliss excess [5],Bliss excess (NB1 (Neuroblastoma)),Bliss excess (NCI-H226 (Mesothelioma)),Bliss excess (NCI-H2373 (Mesothelioma)),Bliss excess [6],Bliss excess [7],Bliss excess (SK-N-SH (Neuroblastoma)),Bliss excess [8],Bliss excess [9],Bliss excess [10],Bliss excess (T47D (Breast Carcinoma)),Bliss excess [11],Bliss excess (UACC-257 (Melanoma))
"CN(C)CCCOc1ccc(-c2ccc3ncc4c(c3c2)n(C2CCOCC2)c(=O)n4C)cn1 [AZD0156] + C=CCn1c(=O)c2cnc(Nc3ccc(N4CCN(C)CC4)cc3)nc2n1-c1cccc(C(C)(C)O)n1 [AZD1775] (first compound max 1 µM, partner max 1 µM)",0.0248,-0.0547,-0.0025,-0.0501,-0.0225,-0.0079,0.0227,-0.0301,-0.0109,-0.0862,-0.0126,0.0029,-0.0278,-0.0533,-0.0565,-0.0328,0.0535,0.0108,0.0088,-0.0223
"CN(C)CCCOc1ccc(-c2ccc3ncc4c(c3c2)n(C2CCOCC2)c(=O)n4C)cn1 [AZD0156] + CCN(CCO)CCCOc1ccc2c(Nc3cc(CC(=O)Nc4cccc(F)c4)[nH]n3)ncnc2c1 [AZD2811] (first compound max 1 µM, 7x7, partner max 1 µM)",0.0165,-0.0288,0.0049,-0.0766,-0.0131,-0.0395,0.0392,0.0331,-0.0137,-0.0676,-0.0048,-0.005,0.0082,-0.0133,-0.05,-0.0227,-0.0286,-0.0062,0.0563,-0.039
"CN(C)CCCOc1ccc(-c2ccc3ncc4c(c3c2)n(C2CCOCC2)c(=O)n4C)cn1 [AZD0156] + C[C@@H]1COCCN1C2=NC(=NC(=C2)C3(CC3)[S@](=N)(=O)C)C4=C5C=CNC5=NC=C4 [AZD6738] (first compound max 1 µM, 7x7, partner max 10 µM)",0.0677,-0.0265,0.0316,-0.0076,-0.0196,-0.0352,0.0472,0.0279,0.0522,-0.0581,-0.0065,-0.009,0.0164,-0.115,-0.0555,0.0183,0.0555,-0.0223,0.0261,-0.0338
"CN(C)CCCOc1ccc(-c2ccc3ncc4c(c3c2)n(C2CCOCC2)c(=O)n4C)cn1 [AZD0156] + O=C(c1cc(Cc2n[nH]c(=O)c3ccccc23)ccc1F)N1CCN(C(=O)C2CC2)CC1 [Olaparib] (first compound max 3 µM, partner max 3 µM)",0.167,0.0647,0.0237,-0.005,0.0034,0.0713,0.139,0.142,-0.0721,-0.0594,0.0178,0.0282,0.156,-0.0043,-0.0324,0.0054,0.202,0.0296,0.0469,-0.0055
"C=CCn1c(=O)c2cnc(Nc3ccc(N4CCN(C)CC4)cc3)nc2n1-c1cccc(C(C)(C)O)n1 [AZD1775] + C1CN(CCC1(C(=O)N[C@@H](CCO)C2=CC=C(C=C2)Cl)N)C3=NC=NC4=C3C=CN4 [Capivasertib] (first compound max 3 µM, partner max 3 µM)",-0.0247,-0.0499,-0.0415,–,–,-0.0462,0.0139,0.0208,-0.0592,-0.0662,-0.0393,-0.0987,0.0011,-0.0626,-0.0139,-0.0573,0.0518,-0.031,0.0434,-0.0383
"COc1nnc2ccc(N3CCC(c4ccc(OCCN5CCN(C)C(=O)[C@H]5C)cc4)CC3)nn12 [AZD5153] + CN(CC[C@H](CSC1=CC=CC=C1)NC2=C(C=C(C=C2)S(=O)(=O)NC(=O)C3=CC=C(C=C3)N4CCC(CC4)[C@H](C5=CC=CC=C5C6=CC=C(C=C6)Cl)O)S(=O)(=O)C(F)(F)F)CCO [AZD4320] (first compound max 1 µM, 7x7, partner max 1 µM)",0.103,0.0136,–,–,–,–,0.0376,–,0.0126,–,0.0157,0.0028,0.0146,–,–,0.0215,-0.0028,0.055,0.0533,0.0654
"Cc1c2c(nn1C)CSCc1cc(n(C)n1)CSc1cc(c3ccccc3c1)OCCCc1c(C(=O)O)n(C)c3c-2c(Cl)ccc13 [AZD5991] + CCN(CCO)CCCOc1ccc2c(Nc3cc(CC(=O)Nc4cccc(F)c4)[nH]n3)ncnc2c1 [AZD2811] (first compound max 1 µM, 7x7, partner max 1 µM)",0.0138,-0.021,0.0311,0.0337,0.0931,-0.0421,0.0028,0.0123,0.0095,0.0097,-0.0088,-0.102,0.0766,-0.068,0.0203,0.0057,0.0104,-0.0096,0.121,–
"Cc1c2c(nn1C)CSCc1cc(n(C)n1)CSc1cc(c3ccccc3c1)OCCCc1c(C(=O)O)n(C)c3c-2c(Cl)ccc13 [AZD5991] + C[C@@H](Nc1cc(F)cc(F)c1)c1cc(C(=O)N(C)C)cc2c(=O)cc(N3CCOCC3)oc12 [AZD8186] (first compound max 1 µM, 7x7, partner max 3 µM)",-0.0352,-0.0377,-0.0085,0.0045,-0.0184,0.0125,-0.0116,-0.0481,-0.0275,-0.0268,-0.0288,–,0.0164,-0.0094,-0.0411,-0.0337,-0.0203,-0.0323,0.0047,-0.0234
"Cc1c2c(nn1C)CSCc1cc(n(C)n1)CSc1cc(c3ccccc3c1)OCCCc1c(C(=O)O)n(C)c3c-2c(Cl)ccc13 [AZD5991] + Cn1cnc2c(F)c(Nc3ccc(Br)cc3Cl)c(C(=O)NOCCO)cc21 [Selumetinib] (first compound max 1 µM, 7x7, partner max 3 µM)",0.0517,-0.0222,0.0185,-0.039,–,-0.0774,0.0203,-0.0362,-0.0181,-0.0684,-0.0345,-0.0098,0.0082,-0.0515,-0.0076,0.0671,0.048,-0.0092,0.0408,0.0215
"Cc1nc(Nc2ncc(C(=O)Nc3c(C)cccc3Cl)s2)cc(N2CCN(CCO)CC2)n1 [Dasatinib] + CC(=O)Nc1cccc(-n2c(=O)n(C3CC3)c(=O)c3c(Nc4ccc(I)cc4F)n(C)c(=O)c(C)c32)c1 [Trametinib] (first compound max 2 µM, 7x7, partner max 1 µM)",0.0091,0.0766,-0.0405,-0.0495,–,0.0201,0.0463,-0.0281,-0.0502,0.027,-0.0756,-0.0018,-0.0232,-0.0507,-0.026,-0.0275,-0.0216,-0.0855,-0.0919,-0.0926
"CC(=O)c1c(C)c2cnc(Nc3ccc(N4CCNCC4)cn3)nc2n(C2CCCC2)c1=O [Palbociclib] + CN(CC[C@H](CSC1=CC=CC=C1)NC2=C(C=C(C=C2)S(=O)(=O)NC(=O)C3=CC=C(C=C3)N4CCC(CC4)[C@H](C5=CC=CC=C5C6=CC=C(C=C6)Cl)O)S(=O)(=O)C(F)(F)F)CCO [AZD4320] (first compound max 10 µM, 7x7, partner max 1 µM)",-0.0234,0.0021,–,–,–,–,-0.0216,–,-0.0677,–,-0.0794,-0.0578,-0.0122,–,–,-0.0867,0.0414,-0.0628,-0.0635,-0.0668
"CCc1c2c(nc3ccc(O)cc13)-c1cc3c(c(=O)n1C2)COC(=O)[C@]3(O)CC [SN-38] + O=C(c1cc(Cc2n[nH]c(=O)c3ccccc23)ccc1F)N1CCN(C(=O)C2CC2)CC1 [Olaparib] (first compound max 0.3 µM, 7x7, partner max 10 µM)",-0.0023,0.0626,0.105,0.13,0.0125,0.0352,0.0811,0.0551,–,-0.0493,-0.0716,–,0.0342,0.0739,0.0602,0.0556,0.0641,0.0623,0.0429,0.0213
"C[C@@H](c1ccc2nccn2c1)n1nnc2ncc(-c3cnn(C)c3)nc21 [Savolitinib] + CN(CC[C@H](CSC1=CC=CC=C1)NC2=C(C=C(C=C2)S(=O)(=O)NC(=O)C3=CC=C(C=C3)N4CCC(CC4)[C@H](C5=CC=CC=C5C6=CC=C(C=C6)Cl)O)S(=O)(=O)C(F)(F)F)CCO [AZD4320] (first compound max 1 µM, 7x7, partner max 1 µM)",-0.0474,-0.0216,–,–,–,–,-0.0166,–,-0.0318,–,-0.0681,-0.018,-0.0168,–,–,-0.101,-0.058,0,-0.0188,-0.0529
